US10473645B2, “Methods for identifying a receptor for a ligand and uses thereof” (UNIVERSITE DE GENEVE, priority 2014, dated 2019)

Tests used:
OR67c [1] = biological target: T1, OR67c (Drosophila melanogaster, UniProt Q9VT90); settings: Hallem and Carlson, 2006; cited from earlier work
OR67c [2] = biological target: T1, OR67c; assay: Drosophila OR transcript level by RT-qPCR after odorant exposure; assay type: in vivo, Drosphila melanogaster; parameters: from tissue; host or cells: olfactory neurons of living W1118 flies (heads / antennae collected for RNA); settings: 5% odorant in DMSO, 5 hours, fly heads
Procedure: (§1) Drosophila (W1118) were collected between 0 and 14 hours after hatching. Males and females were exposed separately.
(§2) For flies, after exposure, vials containing the animals were placed upside down in a −80° C. freezer for five minutes, then kept in a −20° C. freezer until dissection. Whole heads were removed by hand and placed in a screw-cap tube containing 1 ml of Trizol (Ambion) and a 0.5 cm diameter steel ball, and kept on ice. Samples were homogenized using four runs of 15 s at 6 m/s on a FastPrep®-24 instrument (MP Biomedicals).
(§3) Samples were cooled on ice between each run. RNA extraction followed the Trizol protocol according to the manufacturer instructions, and using 5 μg of RNase-free glycogen as carrier for RNA precipitation. The RNA pellet was resuspended in 20 μl of RNase-free water and a DNAse treatment (Life Technologies Ambion DNase I®) was performed.
(§4) 24 hours-old Drosphila melanogaster flies were kept in plastic tubes and exposed to either 5% ethyl lactate diluted in DMSO or to 5% geranyl acetate diluted in DMSO. The odorants were spotted on papers that were introduced into the plastic tubes. 10 flies were used per condition (8 independent extracts per condition). 5 hours after exposure heads were collected and RNA extracted.
(§5) The transcript levels for Or67c (a known receptor for ethyl lactate) and Or82a (a known receptor for geranyl acetate) were evaluated by RT-qPCR.

OR82a [3] = biological target: T2, OR82a (Drosophila melanogaster, UniProt P82986); assay: as above; assay type: in vivo, Drosphila melanogaster; parameters: from tissue; host or cells: olfactory neurons of living W1118 flies (heads / antennae collected for RNA); settings: 5% odorant in DMSO, 5 hours, fly heads
Procedure: as §1, §2, §3, §4, §5

OR82a [4] = biological target: T2, OR82a; settings: Hallem and Carlson, 2006; cited from earlier work

T2 sequence (P82986 whole entry): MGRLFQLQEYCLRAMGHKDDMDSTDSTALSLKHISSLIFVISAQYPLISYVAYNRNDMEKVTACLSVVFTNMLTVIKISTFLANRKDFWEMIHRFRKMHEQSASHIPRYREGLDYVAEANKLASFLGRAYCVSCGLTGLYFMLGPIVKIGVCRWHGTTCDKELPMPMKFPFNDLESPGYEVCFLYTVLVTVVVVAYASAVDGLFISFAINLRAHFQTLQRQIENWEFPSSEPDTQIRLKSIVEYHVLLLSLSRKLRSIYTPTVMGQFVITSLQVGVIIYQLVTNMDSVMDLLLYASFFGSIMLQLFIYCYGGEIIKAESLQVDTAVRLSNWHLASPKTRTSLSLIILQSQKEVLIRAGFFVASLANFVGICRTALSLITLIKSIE
T2 sequence (Q9VNB5 whole entry partner): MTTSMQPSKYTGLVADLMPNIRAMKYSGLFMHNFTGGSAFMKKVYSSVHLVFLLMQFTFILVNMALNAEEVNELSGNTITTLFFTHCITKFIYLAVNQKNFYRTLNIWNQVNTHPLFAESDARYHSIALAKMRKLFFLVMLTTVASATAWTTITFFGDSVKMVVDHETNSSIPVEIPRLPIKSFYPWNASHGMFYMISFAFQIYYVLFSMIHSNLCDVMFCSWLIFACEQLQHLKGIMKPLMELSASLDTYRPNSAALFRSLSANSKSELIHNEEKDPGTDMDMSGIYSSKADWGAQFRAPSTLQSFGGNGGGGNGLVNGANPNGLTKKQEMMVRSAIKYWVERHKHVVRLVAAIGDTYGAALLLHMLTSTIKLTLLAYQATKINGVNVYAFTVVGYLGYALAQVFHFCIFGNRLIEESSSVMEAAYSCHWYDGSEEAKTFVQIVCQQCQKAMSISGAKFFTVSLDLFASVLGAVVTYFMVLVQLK
T1 sequence (Q9VT90 whole entry): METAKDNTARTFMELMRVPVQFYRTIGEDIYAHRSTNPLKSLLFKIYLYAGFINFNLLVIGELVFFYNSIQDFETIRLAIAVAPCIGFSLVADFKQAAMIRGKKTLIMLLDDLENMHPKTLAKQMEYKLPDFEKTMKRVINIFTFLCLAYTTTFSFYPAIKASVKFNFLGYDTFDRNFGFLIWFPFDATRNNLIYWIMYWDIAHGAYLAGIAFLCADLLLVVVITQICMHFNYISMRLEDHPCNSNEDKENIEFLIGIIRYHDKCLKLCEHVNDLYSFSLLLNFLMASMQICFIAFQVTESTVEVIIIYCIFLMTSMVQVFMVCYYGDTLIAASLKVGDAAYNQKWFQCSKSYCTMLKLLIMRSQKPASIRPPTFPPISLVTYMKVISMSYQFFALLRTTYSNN
T1 sequence (Q9VNB5 whole entry partner): as the sequence (Q9VNB5 whole entry partner) above

| Structure (SMILES) | OR67c response previously shown (OR67c [1]) | Or67c mRNA level relative to control ORs (OR67c [2]) [×] | Or82a mRNA level relative to control ORs (OR82a [3]) [×] | OR82a response previously shown (OR82a [4]) |
| --- | --- | --- | --- | --- |
| CCOC(=O)C(C)O (stereo not shown) [ethyl lactate] | respond | 0.7 |  |  |
| CC(=O)OC/C=C(\C)CCC=C(C)C [geranyl acetate] |  |  | 0.6 | respond |
